# Measured values as given in ChEMBL document CHEMBL3045118, “Synthesis and biological activities of new Mannich bases of chlorokojic acid derivatives” (Med Chem Res, 2011).
# The source made the active and inactive calls. No cut-off for these calls is given here.
# Legend:
# [1] = test system: Candida albicans; assay: Antifungal activity against Candida albicans ATCC 10231 by microdilution method; assay type: functional
# [2] = test system: Candida parapsilosis; assay: Antifungal activity against Candida parapsilosis ATCC 22019 by microdilution method; assay type: functional
# [3] = test system: Bacillus subtilis; assay: Antibacterial activity against ceftriaxon-resistant Bacillus subtilis by microdilution method; assay type: functional
# [4] = test system: Enterococcus faecalis; assay: Antibacterial activity against cephalosporins and beta-lactam-resistant Enterococcus faecalis by microdilution method; assay type: functional
# [5] = test system: Bacillus subtilis; assay: Antibacterial activity against Bacillus subtilis ATCC 6633 by microdilution method; assay type: functional
# [6] = test system: Enterococcus faecalis; assay: Antibacterial activity against Enterococcus faecalis ATCC 29212 by microdilution method; assay type: functional
# [7] = test system: Staphylococcus aureus; assay: Antibacterial activity against oxacillin, gentamicin, aztreonam, trimethoprim-sulfamethoxazole-resistant Staphylococcus aureus by microdilution method; assay type: functional
# [8] = test system: Staphylococcus aureus; assay: Antibacterial activity against Staphylococcus aureus ATCC 25923 by microdilution method; assay type: functional
# [9] = test system: Human respirovirus 3; assay: Antiviral activity against Human parainfluenza virus 3 infected African green monkey Vero cells assessed as concentration required to cause minimum inhibition of virus-induced cytopathic effect; assay type: functional
# [10] = test system: Human respirovirus 3; assay: Antiviral activity against Human parainfluenza virus 3 infected African green monkey Vero cells assessed as concentration required to cause maximum inhibition of virus-induced cytopathic effect; assay type: functional
# [11] = Cytotoxicity against Chlorocebus aethiops (African green monkey) Vero cells assessed as maximum non-toxic concentration; assay type: cell-based; settings: chlorocebus sabaeus, read-out: MNCC
# [12] = test system: Human alphaherpesvirus 1; assay: Antiviral activity against Human herpesvirus 1 infected bovine MDBK cells assessed as concentration required to cause minimum inhibition of virus-induced cytopathic effect; assay type: functional
# [13] = test system: Human alphaherpesvirus 1; assay: Antiviral activity against Human herpesvirus 1 infected bovine MDBK cells assessed as concentration required to cause maximum inhibition of virus-induced cytopathic effect; assay type: functional
# [14] = Cytotoxicity against Bos taurus (bovine) MDBK cells assessed as maximum non-toxic concentration; assay type: cell-based; settings: cattle, read-out: MNCC
# [15] = test system: Acinetobacter baumannii; assay: Antibacterial activity against trimethoprim-sulfamethoxazole, cefepime-resistant Acinetobacter baumannii by microdilution method; assay type: functional
# [16] = test system: Acinetobacter baumannii; assay: Antibacterial activity against Acinetobacter baumannii RSKK 02026 by microdilution method; assay type: functional
# [17] = test system: Klebsiella pneumoniae; assay: Antibacterial activity against ESbetaL positive trimethoprim-sulfamethoxazole, amoxicillin clavulonat, cefriaxon, cephepim, aztreonam-resistant Klebsiella pneumoniae by microdilution method; assay type: functional
# [18] = test system: Klebsiella pneumoniae; assay: Antibacterial activity against Klebsiella pneumoniae RSKK 574 by microdilution method; assay type: functional
# [19] = test system: Proteus mirabilis; assay: Antibacterial activity against Proteus mirabilis ATCC 7002 by microdilution method; assay type: functional
# [20] = test system: Proteus mirabilis; assay: Antibacterial activity against ESbetaL positive rimethoprim-sulfamethoxazole, cefepime, tazobactam-resistant Proteus mirabilis by microdilution method; assay type: functional
# [21] = test system: Pseudomonas aeruginosa; assay: Antibacterial activity against trimethoprim-sulfamethoxazole, tazobactam-resistant Pseudomonas aeruginosa by microdilution method; assay type: functional
# [22] = test system: Pseudomonas aeruginosa; assay: Antibacterial activity against Pseudomonas aeruginosa ATCC 10145 by microdilution method; assay type: functional
# [23] = test system: Escherichia coli; assay: Antibacterial activity against ESbetaL positive trimethoprim-sulfamethoxazole, cefepime, tazobactam-resistant Escherichia coli isolate by microdilution method; assay type: functional
# [24] = test system: Escherichia coli; assay: Antibacterial activity against Escherichia coli ATCC 35218 by microdilution method; assay type: functional
SMILES,MIC [1],MIC ([2]; Lodderomyces parapsilosis) [µg/mL],MIC [3],MIC [4],MIC [5],MIC [6],MIC [7],MIC [8],Activity [9] [µg/mL],Activity [10] [µg/mL],MIC [15],MIC [16],MIC [17],MIC [18],MIC [19],MIC [20],MIC [21],MIC [22],MIC [23],MIC [24],also measured
OC(Cn1cncn1)(Cn1cncn1)c1ccc(F)cc1F [FLUCONAZOLE],2 µg/mL,4,inactive,inactive,inactive,inactive,inactive,inactive,,,,,,,,,,,,,
O=c1cc(CCl)oc(CN2CCN(c3ccc(C(F)(F)F)cc3)CC2)c1O,8 µg/mL,8,64 µg/mL,32 µg/mL,8 µg/mL,8 µg/mL,64 µg/mL,16 µg/mL,0.025,0.4,64 µg/mL,16 µg/mL,64 µg/mL,32 µg/mL,16 µg/mL,64 µg/mL,64 µg/mL,16 µg/mL,64 µg/mL,16 µg/mL,MNTC [11]: 0.4 µg/mL; Activity [12]: 0.05 µg/mL; Activity [13]: 0.8 µg/mL; MNTC [14]: 0.8 µg/mL
CN[C@H](CC(C)C)C(=O)N[C@H]1C(=O)N[C@@H](CC(N)=O)C(=O)N[C@H]2C(=O)N[C@H]3C(=O)N[C@H](C(=O)N[C@H](C(=O)O)c4cc(O)cc(O)c4-c4cc3ccc4O)[C@H](O)c3ccc(c(Cl)c3)Oc3cc2cc(c3O[C@@H]2O[C@H](CO)[C@@H](O)[C@H](O)[C@H]2O[C@H]2C[C@](C)(N)[C@H](O)[C@H](C)O2)Oc2ccc(cc2Cl)[C@H]1O [VANCOMYCIN],inactive,,inactive,inactive,inactive,inactive,,0.12 µg/mL,,,inactive,inactive,inactive,inactive,inactive,inactive,inactive,inactive,inactive,inactive,MIC [2]: inactive
COc1ccccc1N1CCN(Cc2oc(CCl)cc(=O)c2O)CC1,8 µg/mL,8,32 µg/mL,128 µg/mL,16 µg/mL,64 µg/mL,128 µg/mL,64 µg/mL,0.05,0.2,64 µg/mL,32 µg/mL,64 µg/mL,32 µg/mL,32 µg/mL,64 µg/mL,64 µg/mL,32 µg/mL,64 µg/mL,32 µg/mL,MNTC [11]: 1.6 µg/mL; Activity [12]: 0.2 µg/mL; Activity [13]: 0.8 µg/mL; MNTC [14]: 0.8 µg/mL
CC(=O)N1CCN(c2ccc(OCC3COC(Cn4ccnc4)(c4ccc(Cl)cc4Cl)O3)cc2)CC1 (stereo not given) [KETOCONAZOLE],1 µg/mL,1,inactive,inactive,inactive,inactive,inactive,inactive,,,,,,,,,,,,,
O=c1cc(CCl)oc(CN2CCN(c3ccc(Cl)c(Cl)c3)CC2)c1O,16 µg/mL,16,64 µg/mL,64 µg/mL,16 µg/mL,8 µg/mL,64 µg/mL,8 µg/mL,0.05,0.4,32 µg/mL,64 µg/mL,64 µg/mL,32 µg/mL,32 µg/mL,64 µg/mL,64 µg/mL,16 µg/mL,64 µg/mL,64 µg/mL,MNTC [11]: 0.4 µg/mL; Activity [12]: 0.1 µg/mL; Activity [13]: 0.4 µg/mL; MNTC [14]: 1.6 µg/mL
CC1(C)S[C@@H]2[C@H](NC(=O)[C@H](N)c3ccccc3)C(=O)N2[C@H]1C(=O)O [AMPICILLIN],inactive,,0.5 µg/mL,> 128 µg/mL,0.12 µg/mL,0.5 µg/mL,> 128 µg/mL,< 0.12 µg/mL,,,> 128 µg/mL,2 µg/mL,> 128 µg/mL,2 µg/mL,2 µg/mL,> 128 µg/mL,inactive,inactive,> 128 µg/mL,,MIC [2]: inactive
CC1COc2c(N3CCN(C)CC3)c(F)cc3c(=O)c(C(=O)O)cn1c23 (stereo not given) [OFLOXACIN],inactive,,inactive,32 µg/mL,inactive,1 µg/mL,64 µg/mL,0.25 µg/mL,,,64 µg/mL,0.12 µg/mL,,< 0.12 µg/mL,< 0.12 µg/mL,1 µg/mL,,,,,MIC [2]: inactive
